row,melting point [°C],SMILES
1,192 to 196,O=C1NC[C@H](c2ccc(C(F)(F)F)cn2)[C@H]1C(=O)Nc1cccc(F)c1F [Compound 1104]
2,107.5 to 115.4,CC(O)c1ccccc1NC(=O)C1C(=O)N(C)CC1c1cccc(C(F)(F)F)c1 (stereo not shown) [Compound 1147]
3,132 to 136,C=C(C)c1ccc([C@H]2CN(C)C(=O)[C@@H]2C(=O)Nc2ccc(F)c(F)c2F)cc1 [Compound 1148]
4,97 to 101,Cc1cc([C@H]2CN(C)C(=O)[C@@H]2C(=O)Nc2cccc(F)c2F)no1 [Compound 1237]

# Source: patent US12077503B2, “Substituted cyclic amides and their use as herbicides” (FMC CORPORATION, priority 2015, dated 2024)
